For nine compounds, T/C results are on record in PubChem BioAssay AID212 (DTP/NCI, 2004).

Structures are written as SMILES. Where “and” joins values, the source holds several entries; their conditions need not be identical. Equal entries are not always repeated. Inconclusive results are not listed.

For the assay, the system named is BDF1 mice, colon carcinoma 38 sc, T/C %. Put plainly: NCI In Vivo Anticancer Drug Screen. Data for tumor model Colon Carcinoma 38 (subcutaneous) in B6D2F1 (BDF1) mice. The note with it: endpoint: median tumor weight (est.), schedule: Q07DX002 (ip), higher = larger tumour. The gist of the method: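 Mice with transplanted tumors are treated with compound or vehicle. Survival or tumor size is then measured in both groups. The ratio of treated to control gives the reported figure.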

[1] abbreviates: dose: 4.0 mg/kg/injection, vehicle: saline.
Where [2] appears, read: dose: 0.12 mg/kg/injection, vehicle: saline.
[3] abbreviates: dose: 0.25 mg/kg/injection, vehicle: saline.

Turning to `CCN(CC)CC(C)(C)C(=O)/C=C/c1ccccc1`, the T/C is 102 % of control (dose: 62.5 mg/kg/injection, vehicle: saline) and 52 % of control (dose: 125.0 mg/kg/injection, vehicle: saline).
`COC12C(COC(N)=O)C3=C(C(=O)C(C)=C(N)C3=O)N1CC1C2N1C` (stereo not given): the T/C (dose: 2.0 mg/kg/injection, vehicle: saline) is 93 % of control; the T/C under setting [1] was 87 % of control; the T/C (dose: 8.0 mg/kg/injection, vehicle: saline) is 100 % of control; the T/C (dose: 16.0 mg/kg/injection, vehicle: saline) is 55 % of control; the T/C (dose: 32.0 mg/kg/injection, vehicle: saline) was 11 % of control; the T/C (dose: 64.0 mg/kg/injection, vehicle: saline) was 12 % of control.
With `C1=CCOCOC1`, the T/C runs as follows: (dose: 12.5 mg/kg/injection, vehicle: saline with Tween-80) 77 % of control; (dose: 25.0 mg/kg/injection, vehicle: saline with Tween-80) 94 % of control and 104 % of control; (dose: 100.0 mg/kg/injection, vehicle: saline with Tween-80) 72 % of control; (dose: 200.0 mg/kg/injection, vehicle: saline with Tween-80) 58 % of control.
In the case of `O=C(Nc1ccc(N=C=S)cc1Cl)c1cc(Cl)cc(Cl)c1O`, the T/C runs as follows: (dose: 12.5 mg/kg/injection, vehicle: Klucel (hydroxypropylcellulose) (HPC)) 64 % of control and 65 % of control; (dose: 50.0 mg/kg/injection, vehicle: Klucel (hydroxypropylcellulose) (HPC)) 80 % of control and 87 % of control; (dose: 100.0 mg/kg/injection, vehicle: Klucel (hydroxypropylcellulose) (HPC)) 79 % of control.
Consider `CN1N=C(N)c2cn(C3OC(COP(=O)(O)O)C(O)C3O)c3ncnc1c23` (stereo not given), for which the T/C (dose: 6.25 mg/kg/injection, vehicle: water) is 84 % of control; the T/C (dose: 25.0 mg/kg/injection, vehicle: water) was 68 % of control and 91 % of control; the T/C (dose: 100.0 mg/kg/injection, vehicle: water) is 73 % of control.
`O=C1C(NCCO)=C(N2CC2)C(=O)C(NCCO)=C1N1CC1`: the T/C is 83 % of control and 91 % of control under setting [2]; 92 % of control under setting [3].
`COc1cc2c(c(OC)c1OC)-c1ccc(OC)c(=O)cc1[C@@H](NC(C)=O)CC2`: the T/C is, setting by setting: under setting [2], 105 % of control; under setting [3], 121 % of control; (dose: 0.37 mg/kg/injection, vehicle: saline) 119 % of control; (dose: 0.75 mg/kg/injection, vehicle: saline) 69 % of control; (dose: 1.0 mg/kg/injection, vehicle: saline) 159 % of control; (dose: 1.5 mg/kg/injection, vehicle: saline) 87 % of control. The T/C by setting is: (dose: 1.56 mg/kg/injection, vehicle: saline) 95 % of control; (dose: 3.0 mg/kg/injection, vehicle: saline) 87 % of control; under setting [1], 111 % of control; (dose: 6.0 mg/kg/injection, vehicle: saline) 5 % of control.
Consider `N=c1nc2n(cc1F)[C@@H]1O[C@H](CO)[C@@H](O)[C@@H]1O2`, for which the T/C reads like this: (dose: 100.0 mg/kg/injection, vehicle: saline) 118 % of control; (dose: 100.0 mg/kg/injection, vehicle: suspension in saline) 117 % of control; (dose: 200.0 mg/kg/injection, vehicle: saline) 193 % of control; (dose: 200.0 mg/kg/injection, vehicle: suspension in saline) 93 % of control; (dose: 400.0 mg/kg/injection, vehicle: suspension in saline) 99 % of control; (dose: 800.0 mg/kg/injection, vehicle: saline) 102 % of control. For the same compound, the T/C reads like this: (dose: 1600.0 mg/kg/injection, vehicle: saline) 53 % of control; (dose: 1600.0 mg/kg/injection, vehicle: suspension in saline) 40 % of control.
As to `C/C=C(\C)c1cc(=O)c2c(C)cc3c(c2o1)C(=O)c1c(O)c(C2CC(C)(N(C)C)C(OC(C)=O)C(C)O2)cc(C2CC(N(C)C)C(O)C(C)O2)c1C3=O` (stereo not given), the T/C is 78 % of control (dose: 0.31 mg/kg/injection, vehicle: saline); 84 % of control (dose: 0.31 mg/kg/injection, vehicle: suspension in saline); 75 % of control and 92 % of control (dose: 0.62 mg/kg/injection, vehicle: saline); 97 % of control (dose: 0.62 mg/kg/injection, vehicle: suspension in saline); 97 % of control (dose: 1.25 mg/kg/injection, vehicle: saline); 81 % of control (dose: 1.25 mg/kg/injection, vehicle: suspension in saline). Moreover, the T/C is 116 % of control and 105 % of control (dose: 2.5 mg/kg/injection, vehicle: saline); 90 % of control (dose: 2.5 mg/kg/injection, vehicle: suspension in saline); 86 % of control (dose: 5.0 mg/kg/injection, vehicle: saline); 97 % of control (dose: 5.0 mg/kg/injection, vehicle: suspension in saline); 97 % of control (dose: 10.0 mg/kg/injection, vehicle: saline); 120 % of control (dose: 10.0 mg/kg/injection, vehicle: suspension in saline).
